Consider 43 compounds from patent US8993604B2, “Treatment and prevention of dengue virus infections” (Siga Technologies, Inc., priority 2009, dated 2015).

Structures are written as SMILES. Where two headings read alike, the source gives them in different places. Some results are limits rather than exact numbers.

This assay has as its system Dengue-2 (Strain New Guinea C). The experiment in a line: Viral yield assay in Vero cells. In kind it is cell-based. As to conditions: Dengue virus, read-out: Activity (anti-dengue 2 viral activity, EC50 class). The protocol:
Compounds that were active in the primary screen were tested for activity in viral yield assays. […] Vero cells in 12-well plates were infected with dengue-2 virus at a multiplicity of infection (MOI) of 0.1, treated with compound (or DMSO as a control), incubated at 37° C., harvested 48 hours post infection and titered on Vero cells as described above. The EC50 was calculated through ExcelFit. Activities against other serotypes of dengue virus were determined in a similar way.

Where [1] appears, read: Vero cells, MOI 0.1, harvested 48 hours post infection.

For `COc1ccc(C(=O)Nc2ccc(-c3nc4ccccc4s3)c(O)c2)cc1` [Compound 1, N-(4-Benzothiazol-2-yl-3-hydroxy-phenyl)-4-methoxy-benzamide], the EC50 – broadly, the concentration that produces a half-maximal response – under setting [1] is less than 1 µM.

As to `O=C(Nc1ccc(-c2nc3ccccc3s2)cc1)c1ccc2c(c1)OCCO2` [Compound 2, 2,3-Dihydro-benzo[1,4]dioxine-6-carboxylic acid (4-benzothiazol-2-yl-phenyl)-amide], the EC50 under setting [1] is less than 1 µM.

With `COc1ccccc1C(=O)Nc1cccc(-c2nc3ccccc3s2)c1` [Compound 4, N-(3-Benzothiazol-2-yl-phenyl)-2-methoxy-benzamide], under setting [1], the EC50 is less than 1 µM.

Regarding `COc1ccc(C(=O)Nc2ccc(-c3nc4ccccc4s3)c(Cl)c2)cc1OC` [Compound 5, N-(4-Benzothiazol-2-yl-3-chloro-phenyl)-3,4-dimethoxy-benzamide], the EC50 under setting [1] is less than 1 µM.

For `COc1ccc(C(=O)Nc2ccc(-c3nc4ccccc4s3)c(Cl)c2)cc1` [Compound 6, N-(4-Benzothiazol-2-yl-3-chloro-phenyl)-4-methoxy-benzamide], the EC50 under setting [1] is less than 1 µM.

On to `Cc1ccc2nc(-c3ccc(NC(=O)c4ccc(N(C)C)cc4)cc3)sc2c1` [Compound 7, 4-Dimethylamino-N-[4-(6-methyl-benzothiazol-2-yl)-phenyl]-benzamide], for which, under setting [1], the EC50 is less than 1 µM.

For `Cc1ccc(C(=O)O)c(C(=O)Nc2ccc(-c3nc4ccc(C)cc4s3)cc2)c1` [Compound 8, 4-Methyl-N-[4-(6-methyl-benzothiazol-2-yl)-phenyl]-phthalamic acid], the EC50 under setting [1] was less than 1 µM.

As for `Cc1ccc2nc(-c3ccc(NC(=O)c4cccc(S(=O)(=O)N5CCN(C)CC5)c4)cc3)sc2c1` [Compound 9, N-[4-(6-Methyl-benzothiazol-2-yl)-phenyl]-3-(4-methyl-piperazine-1-sulfonyl)-benzamide], the concentration giving a half-maximal response (EC50) under setting [1] was less than 1 µM.

`CN(C)c1ccccc1C(=O)Nc1ccc(-c2nc3ccccc3s2)cc1` [Compound 10, N-(4-Benzothiazol-2-yl-phenyl)-2-dimethylamino-benzamide]: the EC50 under setting [1] was less than 1 µM.

As to `COc1ccccc1C(=O)Nc1ccc(-c2nc3ccccc3s2)c(Cl)c1` [Compound 11, N-(4-Benzothiazol-2-yl-3-chloro-phenyl)-2-methoxy-benzamide], the EC50 under setting [1] was less than 1 µM.

On to `Cc1cccc(C(=O)Nc2cccc(-c3nc4ccccc4s3)c2)c1` [Compound 12, N-(3-Benzothiazol-2-yl-phenyl)-3-methyl-benzamide], for which the EC50 under setting [1] is 1 to 10 µM.

Regarding `COc1cccc(OC)c1C(=O)Nc1cccc(-c2nc3ccccc3s2)c1` [Compound 13, N-(3-Benzothiazol-2-yl-phenyl)-2,6-dimethoxy-benzamide], the EC50 under setting [1] was in the range of 1 to 10 µM.

On to `COc1ccc(C(=O)Nc2ccccc2-c2nc3ccccc3s2)cc1OC` [Compound 14, N-(2-Benzothiazol-2-yl-phenyl)-3,4-dimethoxy-benzamide], for which the EC50 under setting [1] lay in the range of 1 to 10 µM.

Regarding `COc1ccc(-c2nc3ccccc3s2)cc1NC(=O)c1ccc([N+](=O)[O-])cc1Cl` [Compound 15, N-(5-Benzothiazol-2-yl-2-methoxy-phenyl)-2-chloro-4-nitro-benzamide], the EC50 under setting [1] was in the range of 1 to 10 µM.

Take `COc1c(C)cccc1C(=O)Nc1ccccc1-c1nc2ccccc2s1` [Compound 16, N-(2-Benzothiazol-2-yl-phenyl)-2-methoxy-3-methyl-benzamide]: the EC50 under setting [1] is 1 to 10 µM.

In the case of `O=C(Nc1ccc(-c2nc3ccccc3s2)cc1)c1ccc(S(=O)(=O)N2CCCCC2)cc1` [Compound 17, N-(4-Benzothiazol-2-yl-phenyl)-4-(piperidine-1-sulfonyl)-benzamide], the EC50 (Vero, 48 h) lay within 10 to 25 µM.

For `O=C(Nc1cccc(-c2nc3ccccc3s2)c1)c1ccc(S(=O)(=O)N2CCCC2)cc1` [Compound 20, N-(3-Benzothiazol-2-yl-phenyl)-4-(pyrrolidine-1-sulfonyl)-benzamide], under setting [1], the EC50 was 10 to 25 µM.

With `O=C(Nc1ccc(-c2nc3ccccc3s2)cc1)c1ccccc1F` [Compound 21, N-(4-Benzothiazol-2-yl-phenyl)-2-fluoro-benzamide], the EC50 under setting [1] fell in the range of 10 to 25 µM.

Turning to `O=C(Nc1ccc(-c2nc3ccccc3s2)c(O)c1)c1ccc(F)cc1` [Compound 22, N-(4-Benzothiazol-2-yl-3-hydroxy-phenyl)-4-fluoro-benzamide], the EC50 under setting [1] lay within 10 to 25 µM.

For `Cc1ccccc1C(=O)Nc1ccc(-c2nc3ccccc3s2)c(O)c1` [Compound 23, N-(4-Benzothiazol-2-yl-3-hydroxy-phenyl)-2-methyl-benzamide], under setting [1], the EC50 lay in the range of 10 to 25 µM.

As for `O=C(Nc1ccc(-c2nc3ccccc3s2)c(O)c1)c1cccc(F)c1` [Compound 24, N-(4-Benzothiazol-2-yl-3-hydroxy-phenyl)-3-fluoro-benzamide], the EC50 under setting [1] lay within 10 to 25 µM.

For `CCOc1ccc(C(=O)Nc2cccc(-c3nc4ccccc4s3)c2C)cc1[N+](=O)O` [Compound 25, N-(3-Benzothiazol-2-yl-2-methyl-phenyl)-4-ethoxy-3-nitro-benzamide], the EC50 under setting [1] was 10 to 25 µM.

Take `Cc1ccccc1C(=O)Nc1ccc(-c2nc3ccccc3s2)cc1` [Compound 26, N-(4-Benzothiazol-2-yl-phenyl)-2-methyl-benzamide]: the EC50 under setting [1] fell in the range of 10 to 25 µM.

Take `COc1ccc(C(=O)Nc2ccc(-c3nc4ccccc4s3)c(O)c2)cc1OC` [Compound 27, N-(4-Benzothiazol-2-yl-3-hydroxy-phenyl)-3,4-dimethoxy-benzamide]: under setting [1], the EC50 was in the range of 10 to 25 µM.

Turning to `COc1ccc(Br)cc1C(=O)Nc1ccc(-c2nc3ccccc3s2)cc1` [Compound 28, N-(4-Benzothiazol-2-yl-phenyl)-5-bromo-2-methoxy-benzamide], the EC50 under setting [1] lay within 10 to 25 µM.

As to `Cc1ccc2nc(-c3ccc(NC(=O)c4ccc(CN5CCOCC5)cc4)cc3)sc2c1` [Compound 29, N-[4-(6-Methyl-benzothiazol-2-yl)-phenyl]-4-morpholin-4-ylmethyl-benzamide], the EC50 under setting [1] is 10 to 25 µM.

Regarding `CC(=O)Oc1cccc(C(=O)Nc2ccc(-c3nc4ccccc4s3)cc2)c1` [Compound 30, Acetic acid 3-(4-benzothiazol-2-yl-phenylcarbamoyl)-phenyl ester], the EC50 under setting [1] was 10 to 25 µM.

On to `COc1ccc(Cl)cc1C(=O)Nc1ccc(-c2nc3ccccc3s2)cc1` [Compound 31, N-(4-Benzothiazol-2-yl-phenyl)-5-chloro-2-methoxy-benzamide], for which, under setting [1], the EC50 was in the range of 10 to 25 µM.

As to `COc1ccc(C(=O)Nc2ccc(Cl)c(-c3nc4ccccc4s3)c2)cc1OC` [Compound 32, N-(3-Benzothiazol-2-yl-4-chloro-phenyl)-3,4-dimethoxy-benzamide], under setting [1], the EC50 is 10 to 25 µM.

Regarding `Cc1ccc(C(=O)Nc2cccc(-c3nc4ccccc4s3)c2)c(Cl)c1` [Compound 33, N-(3-Benzothiazol-2-yl-phenyl)-2-chloro-4-methyl-benzamide], the EC50 under setting [1] lay within 10 to 25 µM.

On to `O=C(Nc1ccccc1-c1nc2ccccc2s1)c1ccccc1[N+](=O)[O-]` [Compound 34, N-(2-Benzothiazol-2-yl-phenyl)-2-nitro-benzamide], for which the EC50 under setting [1] lay in the range of 10 to 25 µM.

Regarding `O=C(Nc1ccc(-c2nc3ccccc3s2)cc1)c1c(F)c(F)c(F)c(F)c1F` [Compound 36, N-(4-Benzothiazol-2-yl-phenyl)-2,3,4,5,6-pentafluoro-benzamide], under setting [1], the EC50 lay within 10 to 25 µM.

In the case of `CCCC(=O)Nc1ccc(C(=O)Nc2ccc(-c3nc4ccc(C)cc4s3)cc2)cc1` [Compound 37, 4-Butyrylamino-N-[4-(6-methyl-benzothiazol-2-yl)-phenyl]-benzamide], the concentration giving a half-maximal response (EC50) under setting [1] lay within 10 to 25 µM.

Turning to `Cc1cc(C)cc(C(=O)Nc2ccc(-c3nc4ccccc4s3)cc2C)c1` [Compound 38, N-(4-Benzothiazol-2-yl-2-methyl-phenyl)-3,5-dimethyl-benzamide], the EC50 under setting [1] lay in the range of 10 to 25 µM.

For the compound `Cc1cccc(C(=O)Nc2ccc(-c3nc4ccccc4s3)c(Cl)c2)c1` [Compound 39, N-(4-Benzothiazol-2-yl-3-chloro-phenyl)-3-methyl-benzamide], the EC50 under setting [1] lay within 10 to 25 µM.

For `Cc1ccc2nc(-c3ccc(NC(=O)c4ccc(S(=O)(=O)N5CCc6ccccc65)cc4)cc3)sc2c1` [Compound 41, 4-(2,3-Dihydro-indole-1-sulfonyl)-N-[4-(6-methyl-benzothiazol-2-yl)-phenyl]-benzamide], the EC50 under setting [1] was greater than 25 µM.

Regarding `Cc1ccc2sc(-c3ccc(NC(=O)c4ccc(Cl)cc4)cc3)nc2c1` [Compound 42, 4-Chloro-N-[4-(5-methyl-benzothiazol-2-yl)-phenyl]-benzamide], the EC50 under setting [1] is greater than 25 µM.

For the compound `Cc1ccc(-c2nc3ccccc3s2)cc1NC(=O)c1cccc(I)c1` [Compound 43, N-(5-Benzothiazol-2-yl-2-methyl-phenyl)-3-iodo-benzamide], the EC50 under setting [1] was greater than 25 µM.

`O=C(Nc1ccc(-c2nc3ccccc3s2)cc1)c1cc(I)ccc1I` [Compound 44, N-(4-Benzothiazol-2-yl-phenyl)-2,5-diiodo-benzamide]: the EC50 under setting [1] was greater than 25 µM.

In the case of `O=C(Nc1cccc(-c2nc3ccccc3s2)c1)c1cc(I)ccc1I` [Compound 45, N-(3-Benzothiazol-2-yl-phenyl)-2,5-diiodo-benzamide], the EC50 under setting [1] was greater than 25 µM.

Regarding `CCOC(=O)N1CCN(S(=O)(=O)c2ccc(C(=O)Nc3cccc(-c4nc5ccccc5s4)c3)cc2)CC1` [Compound 46, 4-[4-(3-Benzothiazol-2-yl-phenylcarbamoyl)-benzenesulfonyl]-piperazine-1-carboxylic acid ethyl ester], the EC50 under setting [1] is greater than 25 µM.

Take `CCOC(=O)N1CCN(S(=O)(=O)c2ccc(C(=O)Nc3ccccc3-c3nc4ccccc4s3)cc2)CC1` [Compound 47, 4-[4-(2-Benzothiazol-2-yl-phenylcarbamoyl)-benzenesulfonyl]-piperazine-1-carboxylic acid ethyl ester]: under setting [1], the EC50 was greater than 25 µM.

For the compound `COc1cc(C(=O)Nc2ccc(-c3nc4ccccc4s3)cc2)cc(OC)c1OC` [Compound 48, N-(4-Benzothiazol-2-yl-phenyl)-3,4,5-trimethoxy-benzamide], the EC50 under setting [1] was greater than 25 µM.
